Measured values from patent publication US7772241B2, “Variolin derivatives and their use as antitumor agents” (Pharma Mar S.A., priority 2001, dated 2010).
Like-named read-outs stand apart in the source and are kept apart here.

Key:
IGROV-1 = assay: Inhibition of cells growth by colorimetric (SRB) assay, IGROV-1
How it was run: (§1)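 Human tumour cells seeded at 5×10^3/well in RPMI 1640 10% FBS, attached 18 h, then exposed 48 h to samples at 10 to 10^−8 μg/ml in DMSO/EtOH/PBS (0.5:0.5:99). Growth read by SRB staining after TCA fixation, OD 490 nm, triplicate wells; GI, TGI and LC derived.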

SK-MEL-28 = assay: Inhibition of cells growth by colorimetric (SRB) assay, SK-MEL-28
How it was run: as §1

SK-BR-3 = assay: Inhibition of cells growth by colorimetric (SRB) assay, SK-BR-3
Source text: The finality of these assays is to interrupt the growth of a “in vitro” tumor cell culture by means a continued exhibition of the cells to the sample to be testing.
This form of the assay employs 96 well cell culture microplates of 9 mm diameter (Faircloth, 1988; Mosmann, 1983). Most of the cell lines are obtained from American Type Culture Collection (ATCC) derived from different human cancer types.
Cells are maintained in RPMI 1640 10% FBS, supplemented with 0.1 g/l penicillin and 0.1 g/l streptomycin sulphate and then incubated at 37° C., 5% CO2 and 98% humidity. For the experiments, cells were harvested from subconfluent cultures using trypsin and resuspended in fresh medium before plating.
Cells are seeded in 96 well microtiter plates, at 5×10^3 cells per well in aliquots of 195 μl medium, and they are allowed to attach to the plate surface by growing in drug free medium for 18 hours. Afterward, samples are added in aliquots of 5 μl in a ranging from 10 to 10^−8 μg/ml, dissolved in DMSO/EtOH/PBS (0.5:0.5:99). After 48 hours exposure, the antitumor effect are measured by the SRB methodology: cells are fixed by adding 50 μl of cold 50% (wt/vol) trichloroacetic acid (TCA) and incubating for 60 minutes at 4° C. Plates are washed with deionized water and dried. One hundred μl of SRB solution (0.4% wt/vol in 1% acetic acid) is added to each microtiter well and incubated for 10 minutes at room temperature. Unbound SRB is removed by washing with 1% acetic acid. Plates are air dried and bound stain is solubilized with Tris buffer. Optical densities are read on a automated spectrophotometric plate reader at a single wavelength of 490 nm.
The values for mean +/−SD of data from triplicate wells are calculated. Some parameters for cellular responses can be calculated: GI=growth inhibition, TGI=total growth inhibition (cytostatic effect) and LC=cell killing (cytotoxic effect).

PANC-1 = assay: Inhibition of cells growth by colorimetric (SRB) assay, PANC-1
How it was run: as §1

LoVo = assay: Inhibition of cells growth by colorimetric (SRB) assay, LoVo
How it was run: as §1

A-549 = assay: Inhibition of cells growth by colorimetric (SRB) assay, A-549
How it was run: as §1

K-562 = assay: Inhibition of cells growth by colorimetric (SRB) assay, K-562
How it was run: as §1

DU-145 = assay: Inhibition of cells growth by colorimetric (SRB) assay, DU-145
How it was run: as §1

LNCaP = assay: Inhibition of cells growth by colorimetric (SRB) assay, LNCaP
How it was run: as §1

LoVo-Dox = assay: Inhibition of cells growth by colorimetric (SRB) assay, LoVo-Dox
How it was run: as §1

SK-OV-3 = assay: Inhibition of cells growth by colorimetric (SRB) assay, SK-OV-3
How it was run: as §1

IGROV-ET = assay: Inhibition of cells growth by colorimetric (SRB) assay, IGROV-ET
How it was run: as §1

HT-29 = assay: Inhibition of cells growth by colorimetric (SRB) assay, HT-29
How it was run: as §1

## CSc1nccc(-c2c3cccnc3n3ccccc23)n1 [Compound 55]
IGROV-1; Homo sapiens, IGROV-1, 48 h, read-out: GI50 IGROV, SRB assay, 48 hours exposure
  GI50: 7.42 µM
IGROV-1; Homo sapiens, IGROV-1, 48 h, read-out: LC50 IGROV, SRB assay, 48 hours exposure
  CC50: ≥ 34.2 µM
IGROV-1; SRB assay, 48 hours exposure
  TGI IGROV: 1.53E−05
SK-MEL-28; Homo sapiens, SK-MEL-28, 48 h, read-out: GI50 MEL-28, SRB assay, 48 hours exposure
  GI50: 11.6 µM
SK-MEL-28; Homo sapiens, SK-MEL-28, 48 h, read-out: LC50 MEL-28, SRB assay, 48 hours exposure
  CC50: ≥ 34.2 µM
SK-MEL-28; SRB assay, 48 hours exposure
  TGI MEL-28: 3.20E−05
SK-BR-3; Homo sapiens, SK-BR-3, 48 h, read-out: GI50 SK-BR-3, SRB assay, 48 hours exposure
  GI50: 8.82 µM
SK-BR-3; Homo sapiens, SK-BR-3, 48 h, read-out: LC50 SK-BR-3, SRB assay, 48 hours exposure
  CC50: ≥ 34.2 µM
SK-BR-3; SRB assay, 48 hours exposure
  TGI SK-BR-3: 2.32E−05
PANC-1; Homo sapiens, PANC-1, 48 h, read-out: GI50 PANC-1, SRB assay, 48 hours exposure
  GI50: 8.79 µM
PANC-1; Homo sapiens, PANC-1, 48 h, read-out: LC50 PANC-1, SRB assay, 48 hours exposure
  CC50: ≥ 34.2 µM
PANC-1; SRB assay, 48 hours exposure
  TGI PANC-1: 2.91E−05
LoVo; Homo sapiens, LoVo, 48 h, read-out: GI50 LOVO, SRB assay, 48 hours exposure
  GI50: 9.92 µM
LoVo; Homo sapiens, LoVo, 48 h, read-out: LC50 LOVO, SRB assay, 48 hours exposure
  CC50: ≥ 34.2 µM
LoVo; SRB assay, 48 hours exposure
  TGI LOVO: 3.42E−05
A-549; Homo sapiens, A549, 48 h, read-out: GI50 A-549, SRB assay, 48 hours exposure
  GI50: 7.29 µM
A-549; Homo sapiens, A549, 48 h, read-out: LC50 A-549, SRB assay, 48 hours exposure
  CC50: ≥ 34.2 µM
A-549; SRB assay, 48 hours exposure
  TGI A-549: 1.90E−05
K-562; Homo sapiens, K562, 48 h, read-out: GI50 K-562, SRB assay, 48 hours exposure
  GI50: 9.71 µM
K-562; Homo sapiens, K562, 48 h, read-out: LC50 K-562, SRB assay, 48 hours exposure
  CC50: ≥ 34.2 µM
K-562; SRB assay, 48 hours exposure
  TGI K-562: 1.83E−05
DU-145; Homo sapiens, DU-145, 48 h, read-out: GI50 DU-145, SRB assay, 48 hours exposure
  GI50: 11.4 µM
DU-145; Homo sapiens, DU-145, 48 h, read-out: LC50 DU-145, SRB assay, 48 hours exposure
  CC50: ≥ 34.2 µM
DU-145; SRB assay, 48 hours exposure
  TGI DU-145: 3.38E−05
LNCaP; Homo sapiens, LNCaP, 48 h, read-out: GI50 LN-caP, SRB assay, 48 hours exposure
  GI50: 6.84 µM
LNCaP; Homo sapiens, LNCaP, 48 h, read-out: LC50 LN-caP, SRB assay, 48 hours exposure
  CC50: ≥ 34.2 µM
LNCaP; SRB assay, 48 hours exposure
  TGI LN-caP: 1.55E−05
LoVo-Dox; Homo sapiens, 48 h, read-out: GI50 LOVO-DOX, SRB assay, 48 hours exposure
  GI50: 3.93 µM
LoVo-Dox; Homo sapiens, 48 h, read-out: LC50 LOVO-DOX, SRB assay, 48 hours exposure
  CC50: 26.4 µM
LoVo-Dox; SRB assay, 48 hours exposure
  TGI LOVO-DOX: 1.02E−05
SK-OV-3; Homo sapiens, SK-OV-3, 48 h, read-out: GI50 SKOV-3, SRB assay, 48 hours exposure
  GI50: 7.73 µM
SK-OV-3; Homo sapiens, SK-OV-3, 48 h, read-out: LC50 SKOV-3, SRB assay, 48 hours exposure
  CC50: ≥ 34.2 µM
SK-OV-3; SRB assay, 48 hours exposure
  TGI SKOV-3: 2.09E−05
IGROV-ET; Homo sapiens, 48 h, read-out: GI50 IGROV-ET, SRB assay, 48 hours exposure
  GI50: 8.79 µM
IGROV-ET; Homo sapiens, 48 h, read-out: LC50 IGROV-ET, SRB assay, 48 hours exposure
  CC50: ≥ 34.2 µM
IGROV-ET; SRB assay, 48 hours exposure
  TGI IGROV-ET: 2.00E−05
HT-29; Homo sapiens, HT-29, 48 h, read-out: GI50 HT-29, SRB assay, 48 hours exposure
  GI50: 13.2 µM
HT-29; Homo sapiens, HT-29, 48 h, read-out: LC50 HT-29, SRB assay, 48 hours exposure
  CC50: ≥ 34.2 µM
HT-29; SRB assay, 48 hours exposure
  TGI HT-29: 3.42E−05

## Cl.Nc1nccc(-c2c3c(N)ccnc3n3c(N)nccc23)n1 [Compound 91]
IGROV-1; SRB assay, 48 hours exposure
  TGI IGROV: 9.73E−07
IGROV-1; read-out: GI50 IGROV, SRB assay, 48 hours exposure
  GI50: 0.241 µM
IGROV-1; read-out: LC50 IGROV, SRB assay, 48 hours exposure
  CC50: 6.02 µM
SK-MEL-28; SRB assay, 48 hours exposure
  TGI MEL-28: 5.10E−07
SK-MEL-28; read-out: GI50 MEL-28, SRB assay, 48 hours exposure
  GI50: 0.18 µM
SK-MEL-28; read-out: LC50 MEL-28, SRB assay, 48 hours exposure
  CC50: 1.25 µM
SK-BR-3; SRB assay, 48 hours exposure
  TGI SK-BR-3: 6.45E−07
SK-BR-3; read-out: GI50 SK-BR-3, SRB assay, 48 hours exposure
  GI50: 0.251 µM
SK-BR-3; read-out: LC50 SK-BR-3, SRB assay, 48 hours exposure
  CC50: 1.65 µM
PANC-1; SRB assay, 48 hours exposure
  TGI PANC-1: 2.44E−06
PANC-1; read-out: GI50 PANC-1, SRB assay, 48 hours exposure
  GI50: 0.896 µM
PANC-1; read-out: LC50 PANC-1, SRB assay, 48 hours exposure
  CC50: 16.2 µM
LoVo; SRB assay, 48 hours exposure
  TGI LOVO: 8.49E−07
LoVo; read-out: GI50 LOVO, SRB assay, 48 hours exposure
  GI50: 0.201 µM
LoVo; read-out: LC50 LOVO, SRB assay, 48 hours exposure
  CC50: 6.82 µM
A-549; SRB assay, 48 hours exposure
  TGI A-549: 2.09E−06
A-549; read-out: GI50 A-549, SRB assay, 48 hours exposure
  GI50: 1.09 µM
A-549; read-out: LC50 A-549, SRB assay, 48 hours exposure
  CC50: 8.29 µM
K-562; SRB assay, 48 hours exposure
  TGI K-562: 3.78E−06
K-562; read-out: GI50 K-562, SRB assay, 48 hours exposure
  GI50: 1.32 µM
K-562; read-out: LC50 K-562, SRB assay, 48 hours exposure
  CC50: 24.9 µM
DU-145; SRB assay, 48 hours exposure
  TGI DU-145: 1.34E−06
DU-145; read-out: GI50 DU-145, SRB assay, 48 hours exposure
  GI50: 0.336 µM
DU-145; read-out: LC50 DU-145, SRB assay, 48 hours exposure
  CC50: 24.9 µM
LoVo-Dox; SRB assay, 48 hours exposure
  TGI LOVO-DOX: 1.86E−06
LoVo-Dox; read-out: GI50 LOVO-DOX, SRB assay, 48 hours exposure
  GI50: 0.774 µM
LoVo-Dox; read-out: LC50 LOVO-DOX, SRB assay, 48 hours exposure
  CC50: 7.47 µM
SK-OV-3; SRB assay, 48 hours exposure
  TGI SKOV-3: 2.12E−06
SK-OV-3; read-out: GI50 SKOV-3, SRB assay, 48 hours exposure
  GI50: 0.7 µM
SK-OV-3; read-out: LC50 SKOV-3, SRB assay, 48 hours exposure
  CC50: 24.9 µM
IGROV-ET; SRB assay, 48 hours exposure
  TGI IGROV-ET: 1.98E−06
IGROV-ET; read-out: GI50 IGROV-ET, SRB assay, 48 hours exposure
  GI50: 1.16 µM
IGROV-ET; read-out: LC50 IGROV-ET, SRB assay, 48 hours exposure
  CC50: 24.9 µM
HT-29; SRB assay, 48 hours exposure
  TGI HT-29: 2.49E−06
HT-29; read-out: GI50 HT-29, SRB assay, 48 hours exposure
  GI50: 1.34 µM
HT-29; read-out: LC50 HT-29, SRB assay, 48 hours exposure
  CC50: 24.9 µM
